Reference: the NIST ThermoML archive (doi:10.1021/acs.jced.5b00934)

Conditions: Liquid, Vibrating tube method

CCC(C)O (stereo not drawn) [butan-2-ol]
Conditions | mass density [kg/m3]
303.15 K, 20032 kPa | 813.3
303.15 K, 21980 kPa | 814.6
303.15 K, 25089 kPa | 816.7
303.15 K, 27989 kPa | 818.6
303.15 K, 30014 kPa | 819.9
303.15 K, 32951 kPa | 821.7
303.15 K, 33007 kPa | 821.7
303.15 K, 33998 kPa | 822.3
303.15 K, 38048 kPa | 824.8
303.15 K, 40020 kPa | 826
303.15 K, 42004 kPa | 827.1
303.15 K, 44999 kPa | 828.9
303.15 K, 45386 kPa | 829.1
303.15 K, 48182 kPa | 830.7
303.15 K, 50063 kPa | 831.8
303.15 K, 51975 kPa | 832.8
303.16 K, 469 kPa | 798.5
303.16 K, 7034 kPa | 803.7
303.16 K, 9943 kPa | 806
303.16 K, 11919 kPa | 807.5
303.16 K, 15070 kPa | 809.8
303.16 K, 31992 kPa | 821.1
303.16 K, 35073 kPa | 823
303.16 K, 55053 kPa | 834.5
303.16 K, 57971 kPa | 836.1
303.16 K, 59945 kPa | 837.1
303.16 K, 62023 kPa | 838.2
303.16 K, 64910 kPa | 839.7
303.16 K, 66100 kPa | 840.3
308.15 K, 99 kPa | 793.9
308.15 K, 284 kPa | 794.1
308.15 K, 499 kPa | 794.3
308.15 K, 1030 kPa | 794.8
308.15 K, 2012 kPa | 795.6
308.15 K, 3016 kPa | 796.4
308.15 K, 10011 kPa | 802
308.15 K, 17937 kPa | 808
308.15 K, 31948 kPa | 817.5
308.15 K, 32957 kPa | 818.2
308.15 K, 33017 kPa | 818.2
308.15 K, 34003 kPa | 818.8
308.15 K, 38001 kPa | 821.3
308.15 K, 45022 kPa | 825.5
308.15 K, 50010 kPa | 828.4
308.15 K, 52016 kPa | 829.5
308.15 K, 54994 kPa | 831.2
308.15 K, 58005 kPa | 832.8
308.15 K, 60029 kPa | 833.9
308.16 K, 919 kPa | 794.6
308.16 K, 5009 kPa | 798.1
308.16 K, 7020 kPa | 799.7
308.16 K, 9036 kPa | 801.3
308.16 K, 11963 kPa | 803.6
308.16 K, 15014 kPa | 805.8
308.16 K, 19942 kPa | 809.4
308.16 K, 22125 kPa | 810.9
308.16 K, 25007 kPa | 813
308.16 K, 28001 kPa | 815
308.16 K, 30046 kPa | 816.3
308.16 K, 35061 kPa | 819.4
308.16 K, 40051 kPa | 822.5
308.16 K, 41974 kPa | 823.7
308.16 K, 47997 kPa | 827.2
308.16 K, 61986 kPa | 835
308.16 K, 64977 kPa | 836.6
308.16 K, 66129 kPa | 837.2
313.15 K, 97 kPa | 789.4
313.15 K, 331 kPa | 789.6
313.15 K, 521 kPa | 789.8
313.15 K, 925 kPa | 790.2
313.15 K, 1936 kPa | 791
313.15 K, 2964 kPa | 791.9
313.15 K, 10109 kPa | 797.8
313.15 K, 12051 kPa | 799.4
313.15 K, 22039 kPa | 806.9
313.15 K, 24988 kPa | 809
313.15 K, 27962 kPa | 811
313.15 K, 30012 kPa | 812.4
313.15 K, 32043 kPa | 813.7
313.15 K, 33039 kPa | 814.4
313.15 K, 33084 kPa | 814.4
313.15 K, 37907 kPa | 817.5
313.15 K, 42039 kPa | 820
313.15 K, 50005 kPa | 824.8
313.15 K, 58031 kPa | 829.3
313.16 K, 1053 kPa | 790.3
313.16 K, 5002 kPa | 793.7
313.16 K, 6986 kPa | 795.3
313.16 K, 8976 kPa | 797
313.16 K, 14996 kPa | 801.7
313.16 K, 17980 kPa | 803.9
313.16 K, 20012 kPa | 805.4
313.16 K, 34096 kPa | 815
313.16 K, 35045 kPa | 815.6
313.16 K, 40135 kPa | 818.9
313.16 K, 45006 kPa | 821.8
313.16 K, 48081 kPa | 823.7
313.16 K, 52025 kPa | 826
313.16 K, 55030 kPa | 827.7
313.16 K, 60001 kPa | 830.4
313.16 K, 62068 kPa | 831.6
313.16 K, 65053 kPa | 833.2
313.16 K, 66058 kPa | 833.7
318.15 K, 102 kPa | 784.8
318.15 K, 288 kPa | 785
318.15 K, 909 kPa | 785.5
318.15 K, 9293 kPa | 792.8
318.15 K, 12039 kPa | 795.1
318.15 K, 14977 kPa | 797.4
318.15 K, 17998 kPa | 799.8
318.15 K, 20024 kPa | 801.3
318.15 K, 24907 kPa | 804.9
318.15 K, 27973 kPa | 807.1
318.15 K, 30001 kPa | 808.5
318.15 K, 32873 kPa | 810.4
318.15 K, 33033 kPa | 810.4
318.15 K, 45210 kPa | 818.3
318.15 K, 48072 kPa | 820.1
318.15 K, 49996 kPa | 821.2
318.15 K, 57926 kPa | 825.8
318.16 K, 476 kPa | 785.1
318.16 K, 1004 kPa | 785.6
318.16 K, 1987 kPa | 786.5
318.16 K, 3033 kPa | 787.4
318.16 K, 5011 kPa | 789.2
318.16 K, 6978 kPa | 790.9
318.16 K, 10006 kPa | 793.4
318.16 K, 22040 kPa | 802.8
318.16 K, 32063 kPa | 809.9
318.16 K, 33988 kPa | 811.1
318.16 K, 34997 kPa | 811.8
318.16 K, 38029 kPa | 813.7
318.16 K, 39963 kPa | 815
318.16 K, 42133 kPa | 816.4
318.16 K, 51984 kPa | 822.4
318.16 K, 54987 kPa | 824.1
318.16 K, 60004 kPa | 827
318.16 K, 62005 kPa | 828.1
318.16 K, 65012 kPa | 829.7
318.16 K, 66081 kPa | 830.3
323.15 K, 539 kPa | 780.5
323.15 K, 1027 kPa | 781
323.15 K, 5007 kPa | 784.7
323.15 K, 7056 kPa | 786.5
323.15 K, 9085 kPa | 788.3
323.15 K, 10245 kPa | 789.3
323.15 K, 12118 kPa | 790.8
323.15 K, 15027 kPa | 793.2
323.15 K, 18033 kPa | 795.6
323.15 K, 20133 kPa | 797.2
323.15 K, 25015 kPa | 800.9
323.15 K, 28096 kPa | 803.1
323.15 K, 33113 kPa | 806.7
323.15 K, 37980 kPa | 809.9
323.15 K, 40058 kPa | 811.2
323.15 K, 42026 kPa | 812.5
323.15 K, 50034 kPa | 817.5
323.15 K, 52055 kPa | 818.7
